The NIST ThermoML archive (doi:10.1021/je050209y)

Assays:
[1] = xn = mol fraction of the nth substance listed; conditions: 298.15 K, 101.33 kPa, Liquid
[2] = 298.15 K; 101.33 kPa; Liquid

CN(C)C=O [dimethylformamide] + O
[1]
Conditions	mass density [kg/m3]	viscosity [mPa·s]
x1 = 0.05	996	1.31
x1 = 0.1001	996.8	1.728
x1 = 0.2	995.1	2.346
x1 = 0.299	991.6	2.491
x1 = 0.3998	984.4	2.273
x1 = 0.4997	975.9	1.878
x1 = 0.5993	968.4	1.532
x1 = 0.6995	960.7	1.243
x1 = 0.8	954.9	1.045
x1 = 0.8991	949.1	0.901
x1 = 0.9488	946.9	0.843

CNC=O [N-methylformamide]
[2]
Conditions	mass density [kg/m3]	viscosity [mPa·s]
–	998.8	1.681

CNC=O [N-methylformamide] + CN(C)C=O
[1]
Conditions	mass density [kg/m3]	viscosity [mPa·s]
x2 = 0.0497	995.4	1.618
x2 = 0.0997	991.9	1.524
x2 = 0.2002	985.5	1.373
x2 = 0.2999	979.4	1.274
x2 = 0.4001	973.6	1.171
x2 = 0.4999	968.1	1.085
x2 = 0.5999	963	1.006
x2 = 0.699	958	0.947
x2 = 0.8001	953.2	0.897
x2 = 0.9001	948.6	0.855
x2 = 0.95	946.4	0.84

CNC=O [N-methylformamide] + O
[1]
Conditions	mass density [kg/m3]	viscosity [mPa·s]
x1 = 0.0504	1003.2	1.174
x1 = 0.1001	1008.9	1.422
x1 = 0.2	1014.6	1.793
x1 = 0.2998	1016.3	2.001
x1 = 0.4002	1015.1	2.067
x1 = 0.4996	1012.2	2.04
x1 = 0.5996	1009.4	1.961
x1 = 0.6994	1006.1	1.878
x1 = 0.7999	1003.7	1.794
x1 = 0.8983	1000.9	1.734
x1 = 0.9498	999.7	1.707

CN(C)C=O [dimethylformamide]
[2]
Conditions	mass density [kg/m3]	viscosity [mPa·s]
–	944.2	0.799
